# Laboratory results as given in US11161830B2, “4-pyridone compound or salt thereof, and pharmaceutical composition and formulation including same” (priority 2017, dated 2021).
# Values joined by “and” are separate entries in the source; they are usually repeats but may differ in a detail not shown here. Equal entries are not always repeated.
# Test system: HBV genotype C
# Assay: Test Example 3-2: in vivo efficacy study in PXB mouse (chimeric mouse with human hepatocytes), first and second study
# Parameters: species or system hepatitis B virus
# Settings: first study, individual mice
# Experimental: An in vivo efficacy study with a PXB mouse (a chimeric mouse with human hepatocytes) was carried out in PhenixBio Co., Ltd. 19-Week-or-more-old male mice having body weights of 10.5 g or more after the elapse of 13 weeks or more from the infection with HBV genotype C were allocated into the respective groups and used. The studies were carried out twice, and a 21-day administration withdrawal period was provided between the first study and the second study.
# The first administration day in the first study was taken as day 0, and the compound of Example 6-5 was orally administered at 1 mg/kg, 3 mg/kg, 10 mg/kg, and 30 mg/kg twice a day, or 0.5% methylcellulose (vehicle) was orally administered once a day for 14 days. Before administration on day 0, day 3, Day 7, and day 10, and on day 14, the blood was collected from the orbital venous plexus under anesthesia with isoflurane.
# The first administration day in the second study was taken as day 35, and the compounds of Examples 19-2 and 20-2 were each orally administered at 3 mg/kg twice a day, or 0.5% methylcellulose (vehicle) was orally administered once a day for 14 days. Before administration on day 35, day 38, day 42, and day 45, the blood was collected from the orbital venous plexus under anesthesia with isoflurane. On day 49, the blood was collected from the heart under anesthesia with isoflurane.
# The serum was separated from the collected blood and purified with a QIAamp (registered trademark) DNA Blood Mini Kit (manufactured by QIAGEN). The amount of HBV-DNA in the obtained solution was absolutely quantified by a real-time PCR method. In addition, the amount of HBsAg in the serum was absolutely quantified by chemiluminescent enzyme immunoassay using Lumipulse (registered trademark) HBsAg-HQ (manufactured by Fujirebio Inc.).
# [1] = orally 1 mg/kg twice a day, Day 0 (before administration), 1 mg/kg
# [2] = orally 1 mg/kg twice a day, Day 3, 1 mg/kg
# [3] = orally 1 mg/kg twice a day, Day 7, 1 mg/kg
# [4] = orally 1 mg/kg twice a day, Day 14, 1 mg/kg
# [5] = orally 3 mg/kg twice a day, Day 0 (before administration), 3 mg/kg
# [6] = orally 3 mg/kg twice a day, Day 3, 3 mg/kg
# [7] = orally 3 mg/kg twice a day, Day 7, 3 mg/kg
# [8] = orally 3 mg/kg twice a day, Day 10, 3 mg/kg
# [9] = orally 3 mg/kg twice a day, Day 14, 3 mg/kg
# [10] = orally 10 mg/kg twice a day, Day 0 (before administration), 10 mg/kg
# [11] = orally 10 mg/kg twice a day, Day 3, 10 mg/kg
# [12] = orally 10 mg/kg twice a day, Day 7, 10 mg/kg
# [13] = orally 10 mg/kg twice a day, Day 10, 10 mg/kg
# [14] = orally 10 mg/kg twice a day, Day 14, 10 mg/kg
# [15] = orally 30 mg/kg twice a day, Day 0 (before administration), 30 mg/kg
# [16] = orally 30 mg/kg twice a day, Day 3, 30 mg/kg
# [17] = orally 30 mg/kg twice a day, Day 7, 30 mg/kg
# [18] = orally 30 mg/kg twice a day, Day 10, 30 mg/kg
# [19] = orally 30 mg/kg twice a day, Day 14, 30 mg/kg
smiles,measurement,setting,value
"COCCN1CCN(c2nc3ccc(-n4cc(C(=O)O)c(=O)cc4-c4ccc(N5CCCC5)c(Cl)c4)cc3s2)CC1 [Example 6-5, 6-(3-chloro-4-(pyrrolidin-1-yl)phenyl)-1-(2-(4-(2-methoxyethyl)piperazine-1-yl)benzo[d]thiazol-6-yl)-4-oxo-1,4-dihydropyridine-3-carboxylic acid]",HBV-DNA in blood,[1],8.4E+08 copies/mL and 1.1E+09 copies/mL
same,HBsAg in serum,[1],"1,910 IU/mL and 2,498 IU/mL"
same,HBV-DNA in blood,[2],1.6E+09 copies/mL and 7.7E+08 copies/mL
same,HBsAg in serum,[2],"2,288 IU/mL and 2,694 IU/mL"
same,HBV-DNA in blood,[3],1.4E+09 copies/mL and 1.1E+09 copies/mL
same,HBsAg in serum,[3],"2,444 IU/mL and 2,663 IU/mL"
same,HBV-DNA in blood,"orally 1 mg/kg twice a day, Day 10",1.2E+09 copies/mL
same,HBsAg in serum,"orally 1 mg/kg twice a day, Day 10, 1 mg/kg","1,947 IU/mL and 2,431 IU/mL"
same,HBV-DNA in blood,[4],6.8E+08 copies/mL and 6.4E+08 copies/mL
same,HBsAg in serum,[4],"1,777 IU/mL and 2,344 IU/mL"
same,HBV-DNA in blood,[5],1.8E+09 copies/mL and 9.8E+08 copies/mL
same,HBsAg in serum,[5],"2,722 IU/mL and 2,314 IU/mL"
same,HBV-DNA in blood,[6],5.7E+08 copies/mL and 5.6E+08 copies/mL
same,HBsAg in serum,[6],"972 IU/mL and 1,059 IU/mL"
same,HBV-DNA in blood,[7],4.9E+08 copies/mL and 4.0E+08 copies/mL
same,HBsAg in serum,[7],859 IU/mL and 876 IU/mL
same,HBV-DNA in blood,[8],5.7E+08 copies/mL and 6.2E+08 copies/mL
same,HBsAg in serum,[8],"959 IU/mL and 1,025 IU/mL"
same,HBV-DNA in blood,[9],6.1E+08 copies/mL and 5.2E+08 copies/mL
same,HBsAg in serum,[9],"1,012 IU/mL and 837 IU/mL"
same,HBV-DNA in blood,[10],1.1E+09 copies/mL and 1.2E+09 copies/mL
same,HBsAg in serum,[10],"2,500 IU/mL and 2,409 IU/mL"
same,HBV-DNA in blood,[11],8.0E+08 copies/mL and 4.5E+08 copies/mL
same,HBsAg in serum,[11],595 IU/mL and 421 IU/mL
same,HBV-DNA in blood,[12],3.3E+08 copies/mL and 4.0E+08 copies/mL
same,HBsAg in serum,[12],445 IU/mL and 366 IU/mL
same,HBV-DNA in blood,[13],7.3E+08 copies/mL and 3.9E+08 copies/mL
same,HBsAg in serum,[13],394 IU/mL and 329 IU/mL
same,HBV-DNA in blood,[14],4.9E+08 copies/mL and 3.6E+08 copies/mL
same,HBsAg in serum,[14],368 IU/mL and 398 IU/mL
same,HBV-DNA in blood,[15],1.6E+09 copies/mL and 1.2E+09 copies/mL
same,HBsAg in serum,[15],"2,291 IU/mL and 2,328 IU/mL"
same,HBV-DNA in blood,[16],8.3E+08 copies/mL and 4.4E+08 copies/mL
same,HBsAg in serum,[16],673 IU/mL and 592 IU/mL
same,HBV-DNA in blood,[17],7.5E+08 copies/mL and 3.7E+08 copies/mL
same,HBsAg in serum,[17],458 IU/mL and 370 IU/mL
same,HBV-DNA in blood,[18],8.0E+08 copies/mL and 4.9E+08 copies/mL
same,HBsAg in serum,[18],359 IU/mL and 392 IU/mL
same,HBV-DNA in blood,[19],6.1E+08 copies/mL and 2.6E+08 copies/mL
same,HBsAg in serum,[19],408 IU/mL and 268 IU/mL
